Read-outs that look alike come from different tables or passages of the source.
Columns and labels:
[1] = test system: SDMA in HCT116-MTAP-knockout cell line; test: Cell symmetric dimethylarginine (SDMA) test, In-cell Western, HCT116-MTAP-knockout; assay type: cell-based; settings: Homo sapiens, 96 h
[2] = test system: SDMA in human colon cancer cell line HCT116; test: Cell symmetric dimethylarginine (SDMA) test, In-cell Western, HCT116 (MTAP wild-type); assay type: cell-based; settings: Homo sapiens, HCT-116, 96 h
Excerpt: MAT2A catalyzes the reaction of L-methionine and ATP to generate SAM, inorganic phosphonic acid, and inorganic diphosphonic acid. SAM is an important methyl donor, and is a substrate of arginine methyltransferase 5 (PRMT5). PRMT5 catalyzes SDMA modification of multiple proteins within a cell. The intracellular SDMA modification level was detected by ICW (In-cell Western), and the inhibition of the test compound on the enzymatic activity of intracellular MAT2A was indirectly reflected.
In the present application, the human colon cancer cell line HCT116 and the corresponding HCT116-MTAP-knockout cell line were seeded into a 96-well cell culture plate at an appropriate cell density. After 24 h, the cells were treated using the test compounds diluted 1:4 fold at the highest concentration of 6 μM for 6 gradients, and a DMSO treatment group was set up separately. The cells were cultured in a 37° C./5% CO2 incubator for 4 days. To test the inhibitory activity of the test compounds against tumor cell SDMA, the medium was discarded, and the plate was washed 3 times with PBST. 4% paraformaldehyde was then used at room temperature for fixation for 20 min. The fixation solution was discarded, the plate was washed 3 times with PBST, and a special blocking solution was added to each well for blocking at room temperature for 2 h. The blocking solution was discarded. After the plate was washed 3 times with PBST, the plate was incubated with SDMA antibody at 4° C. overnight. The next day, the plate was washed 3 times with PBST. The secondary antibody and DRAQ5 were diluted to an appropriate concentration with the blocking solution, and incubated at room temperature for 2 h; the plate was washed 3 times with PBST, and the fluorescence signals at 700 nm and 800 nm were detected using a Li—COR Odyssey two-color near-infrared laser imager.
The data was then processed. After the corresponding background value was subtracted from each well, statistical analysis was performed on the 800 nm/700 nm ratio for each well, a sigmoidal dose-inhibition curve was plotted using a non-linear regression model, and IC50 values were fitted and calculated. Inhibition Rate (%)=(1−SDMA dose/SDMA DMSO control)*100. SDMA dose is the value of the drug treatment group, and SDMA DMSO control is the value of the DMSO control group.

[3] = test system: HCT116-MTAP-knockout (−/−) cell strain; test: Tumor cell proliferation inhibition assay (CellTiter-Glo), HCT116-MTAP-knockout (-/-); assay type: cell-based; settings: Homo sapiens, 120 h, 5-day treatment
Description: (§1) After the HCT116-MTAP-knockout (−/−) cell strain, the HCT116-MTAP wild-type(+/+)-cell strain, the DOHH-2 cell strain, or the Hut-78 cell strain was treated with the test compound for 5 days, the ATP level was measured using a CellTiter-Glo kit of Promega to evaluate the inhibition of the test compound against the growth of the tumor cell strain.
(§2) In the present application, the HCT116-MTAP-knockout (−/−) cell strain, the HCT116-MTAP wild-type (+/+)-cell strain, the DOHH-2 cell strain, or the Hut-78 cell strain was seeded into a 96-well cell culture plate at an appropriate cell density. After 24 h, the cells were treated using the test compounds diluted 1:3 fold at the highest concentration of 10 μM for 10 gradients, and a DMSO treatment group was set up separately. The cells were cultured in a 37° C./5% CO2 incubator for 5 days.

[4] = test system: HCT116-MTAP wild-type (+/+)-cell strain; test: Tumor cell proliferation inhibition assay (CellTiter-Glo), HCT116-MTAP wild-type (+/+); assay type: cell-based; settings: Homo sapiens, 120 h, 5-day treatment
Description: as §1, §2

[5] = molecular target: MAT2A recombinant protein (Homo sapiens, UniProt P31153); test: MAT2A inhibitory activity (malachite green colorimetric enzyme assay); assay type: biochemical
Excerpt: MAT2A catalyzes the reaction of L-methionine and ATP to generate S-adenosylmethionine (SAM), inorganic phosphonic acid, and inorganic diphosphonic acid. Malachite green reacts with inorganic phosphonic acid to generate a green product, and the enzyme activity of MAT2A can be indirectly reflected by detecting the content of the inorganic phosphonic acid in a sample.
The test compounds were formulated using DMSO and diluted 1:3 diluted through 10 concentration points to give a final starting concentration in the reaction system of 1000 nM. The test compounds at different concentrations described above were transferred to a 384-well plate. Experimental buffer (50 mM HEPES pH 7.5, 50 mM KCl, 10 mM MgCl2, 10 mM DTT) was prepared. 2×MAT2A recombinant protein was prepared using the buffer and added to a 384-well plate. A mixed solution of 2×L-methionine and ATP was prepared using the buffer, and added to a 384-well plate. The enzymatic reaction was started, and the reaction was carried out at room temperature for 60 min. 20 μL of a colorimetric detection reagent was added to the above system, and incubated at room temperature for 15 min. The absorbance at 630 nm was measured. The inhibition rate of the compound on the enzyme activity was calculated, and the inhibition rate value and the logarithm value of the compound concentration were fitted using non-linear regression (dose response-variable slope) to give the IC50 value of the test compound.

[6] = IC50 score class, read-out: Cell 96 h SDMA Inhibition (HCT116-MTAP−/−) (score)
[7] = read-out: Cell 96 h SDMA Inhibition (HCT116-MTAP−/−)
[8] = IC50 score class, read-out: Cell 96 h SDMA Inhibition (HCT116-MTAP+/+) (score)
[9] = read-out: Cell 96 h SDMA inhibition (HCT116-MTAP+/+)
[10] = HCT116-MTAP-knockout (−/−) cells, IC50 score, read-out: Tumor cell 5-day relative growth inhibition (HCT116-MTAP−/−) (nM), score
[11] = HCT116-MTAP-knockout (−/−) cells, IC50 value, read-out: Tumor cell 5-day relative growth inhibition (HCT116-MTAP−/−)
[12] = HCT116-MTAP wild-type (+/+) cells, IC50 score, read-out: Tumor cell 5-day relative growth inhibition (HCT116-MTAP+/+) (nM), score
[13] = HCT116-MTAP wild-type (+/+) cells, IC50 value, read-out: Tumor cell 5-day relative growth inhibition (HCT116-MTAP+/+)
[14] = IC50 score class, read-out: MAT2A Inhibition (score)
[15] = HCT116-MTAP−/− cells, IC50 class score, read-out: Tumor cell 5-day relative growth inhibition (HCT116-MTAP−/−) (nM), score
[16] = HCT116-MTAP−/− cells, read-out: Tumor cell 5-day relative growth inhibition (HCT116-MTAP−/−)
[17] = HCT116-MTAP+/+ cells, IC50 class score, read-out: Tumor cell 5-day relative growth inhibition (HCT116-MTAP+/+) (nM), score
[18] = HCT116-MTAP+/+ cells, read-out: Tumor cell 5-day relative growth inhibition (HCT116-MTAP+/+)

Chain of MAT2A recombinant protein (P31153 whole entry): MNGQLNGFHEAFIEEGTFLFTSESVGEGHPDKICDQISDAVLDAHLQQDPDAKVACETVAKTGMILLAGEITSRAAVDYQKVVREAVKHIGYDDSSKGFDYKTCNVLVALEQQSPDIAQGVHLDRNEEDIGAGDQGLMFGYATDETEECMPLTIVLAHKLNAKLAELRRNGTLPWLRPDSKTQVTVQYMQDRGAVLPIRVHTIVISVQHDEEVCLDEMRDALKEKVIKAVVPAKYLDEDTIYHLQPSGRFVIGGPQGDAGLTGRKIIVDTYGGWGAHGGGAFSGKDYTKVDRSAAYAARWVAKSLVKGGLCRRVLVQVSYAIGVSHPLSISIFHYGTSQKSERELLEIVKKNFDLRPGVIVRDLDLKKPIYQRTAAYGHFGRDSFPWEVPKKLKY

SMILES | IC50 [1, 6] [nM] | IC50 [1, 7] [nM] | IC50 [2, 8] [nM] | IC50 [2, 9] [nM] | IC50 [3, 10] [nM] | IC50 [3, 11] [nM] | IC50 [4, 12] [nM] | IC50 [4, 13] [nM] | IC50 [5, 14] [nM] | IC50 ([5]; read-out: MAT2A Inhibition) [nM] | IC50 [3, 15] [nM] | IC50 [3, 16] [nM] | IC50 [4, 17] [nM] | IC50 [4, 18] [nM]
Cn1cc2c(n1)c(=O)n(-c1cccnc1C(F)(F)F)c1cc(Cl)c(F)cc21 (single isomer, unassigned) [Compound B389] | < 200 | 20 | > 3000 | > 10000 | < 500 | 223 | ≥ 2000 | > 10000 |  |  |  |  |  | 
Cn1cc2c(n1)c(=O)n(-c1cccnc1C(F)(F)F)c1nc(C(F)(F)F)ccc21 [Compound B80] | 200 to 1000 | 218 | > 3000 | > 3000 | < 500 | 81.7 | ≥ 2000 | 23300 |  |  |  |  |  | 
O=c1c2nn(C3CC3)cc2c2ccc(C(F)(F)F)nc2n1-c1cccc2[nH]ncc12 [Compound B250] | 200 to 1000 | 110 | > 3000 | 3970 | < 500 | 299 | 500 to 2000 | 939 | < 100 | 28.1 |  |  |  | 
Cc1c2c(nn1C(F)F)c(=O)n(-c1cccnc1)c1nc(C(F)(F)F)ccc21 [Compound B252] | 200 to 1000 | 202 |  |  | < 500 | 378 | 500 to 2000 | 1230 | < 100 | 19.3 |  |  |  | 
O=c1c2n[nH]cc2c2cc(F)c(Cl)cc2n1-c1cccc2[nH]ncc12 [Compound B263] | < 200 | 3.7 | 200 to 1000 | 687 | < 500 | 21 | < 500 | 173 | < 100 | 9.3 |  |  |  | 
Cn1cc2c(n1)c(=O)n(-c1cccc3[nH]ncc13)c1cc(Cl)cnc21 [Compound B273] | 200 to 1000 | 517 |  |  | 500 to 2000 | 1400 | ≥ 2000 | 7600 | < 100 | 83 |  |  |  | 
Cn1cc2c(n1)c(=O)n(-c1cccc3[nH]ncc13)c1nc(C(F)(F)F)c(F)cc21 [Compound B274] | 200 to 1000 | 147 | 200 to 1000 | 240 | < 500 | 72.5 | ≥ 2000 | > 10000 | < 100 | 9 |  |  |  | 
Cc1n[nH]c2cccc(-n3c(=O)c4nn(C)cc4c4ccc(Cl)cc43)c12 [Compound B277] | < 200 | 61 |  |  | < 500 | 327 | 500 to 2000 | 875 | < 100 | 83 |  |  |  | 
O=c1c2nn(C(F)F)cc2c2cc(F)c(Cl)cc2n1-c1cccnc1C1CC1 [Compound B337] |  |  | > 3000 | > 10000 | 500 to 2000 | 579 | ≥ 2000 | > 10000 |  |  |  |  |  | 
Cn1cnc2c(=O)n(-c3ccc4ccccc4c3)c3nc(C(F)(F)F)ccc3c21 [Compound B404] |  |  |  |  |  |  |  |  | > 1000 | > 10000 | ≥ 2000 | > 10000 | ≥ 2000 | > 10000
Cn1ncc2c3ccc(C(F)(F)F)nc3n(-c3ccccc3Cl)c(=O)c21 [Compound B410] |  |  |  |  |  |  |  |  | > 1000 | > 10000 | ≥ 2000 | > 10000 | ≥ 2000 | > 10000

Next, values leading:

IC50 [1, 6] [nM] | IC50 [1, 7] [nM] | IC50 [2, 8] [nM] | IC50 [2, 9] [nM] | IC50 [3, 10] [nM] | IC50 [3, 11] [nM] | IC50 [4, 12] [nM] | IC50 [4, 13] [nM] | IC50 [5, 14] [nM] | IC50 ([5]; read-out: MAT2A Inhibition) [nM] | IC50 [3, 15] [nM] | IC50 [3, 16] [nM] | IC50 [4, 17] [nM] | IC50 [4, 18] [nM] | SMILES
200 to 1000 | 213 | > 3000 | > 3000 | < 500 | 41.4 | ≥ 2000 | > 2000 | < 100 | 45.1 |  |  |  |  | Cn1cc2c(n1)c(=O)n(-c1cccnc1C(F)(F)F)c1cc(Cl)ccc21 [Compound B68]
< 200 | 11 | > 3000 | > 10000 | < 500 | 50 | < 500 | 477 | < 100 | 14.7 |  |  |  |  | O=c1c2n[nH]cc2c2ccc(C(F)(F)F)nc2n1-c1cccc2[nH]ncc12 [Compound B239]
200 to 1000 | 222 | > 3000 | 3440 | 500 to 2000 | 1160 | ≥ 2000 | 12800 | < 100 | 19.7 |  |  |  |  | O=c1c2nn(C(F)F)cc2c2ccc(C(F)(F)F)nc2n1-c1cccnc1 [Compound B255]
1000 to 3000 | 1240 | > 3000 | > 10000 | ≥ 2000 | 3650 | ≥ 2000 | 5240 | < 100 | 81 |  |  |  |  | CN1CCN(c2ccc(Cn3cc4c(n3)c(=O)n(-c3cccc5[nH]ncc35)c3cc(Cl)c(F)cc43)cn2)CC1 [Compound B268]
 |  |  |  |  |  |  |  | > 1000 | > 10000 | ≥ 2000 | > 10000 | ≥ 2000 | > 10000 | Cn1cnc2c(=O)n(-c3ccc4ccccc4n3)c3nc(C(F)(F)F)ccc3c21 [Compound B402]
 |  |  |  |  |  |  |  | > 1000 | > 10000 | ≥ 2000 | > 10000 | ≥ 2000 | > 10000 | Cn1cnc2c(=O)n(-c3cnc4ccccc4c3)c3nc(C(F)(F)F)ccc3c21 [Compound B403]
 |  |  |  |  |  |  |  | > 1000 | > 10000 | ≥ 2000 | > 10000 | ≥ 2000 | > 10000 | Cn1cnc2c(=O)n(-c3ccc4ncccc4n3)c3nc(C(F)(F)F)ccc3c21 [Compound B405]
